Measured values reported in ChEMBL document CHEMBL4665648, “Potent and selective inhibitors of receptor-interacting protein kinase 1 that lack an aromatic back pocket group” (Bioorg Med Chem Lett, 2019).

Legend:
[1] = molecular target: TGF-beta receptor type-1 (Homo sapiens) (UniProt P36897); test: Inhibition of tracer 178 binding to recombinant human N-terminal GST-tagged TGFBR1 (200 to 503 residues) expressed in baculovirus expression system at 10 uM incubated for 60 mins by Lanthascreen assay relative to control
[2] = molecular target: Mitogen-activated protein kinase kinase kinase kinase 4 (Homo sapiens) (UniProt O95819); test: Inhibition of recombinant human GST-tagged full length MAP4K4 expressed in baculovirus expression system using Ser/Thr 07 as substrate at 10 uM incubated for 60 mins by Z'-lyte assay relative to control
[3] = molecular target: Tyrosine-protein kinase TXK (Homo sapiens) (UniProt P42681); test: Inhibition of recombinant human N-terminal GST-tagged TXK (260 to 527 residues) expressed in baculovirus expression system using Tyr 06 as substrate at 10 uM incubated for 60 mins by Z'-Lyte assay relative to control
[4] = molecular target: Serine/threonine-protein kinase BRSK1 (Homo sapiens) (UniProt Q8TDC3); test: Inhibition of recombinant human GST-tagged full length BrSK1 expressed in baculovirus expression system using Ser/Thr 21 as substrate at 10 uM incubated for 60 mins by Z'-Lyte assay relative to control
Chain of Serine/threonine-protein kinase BRSK1 (Homo sapiens) (Q8TDC3 whole entry, the tested form may be a part): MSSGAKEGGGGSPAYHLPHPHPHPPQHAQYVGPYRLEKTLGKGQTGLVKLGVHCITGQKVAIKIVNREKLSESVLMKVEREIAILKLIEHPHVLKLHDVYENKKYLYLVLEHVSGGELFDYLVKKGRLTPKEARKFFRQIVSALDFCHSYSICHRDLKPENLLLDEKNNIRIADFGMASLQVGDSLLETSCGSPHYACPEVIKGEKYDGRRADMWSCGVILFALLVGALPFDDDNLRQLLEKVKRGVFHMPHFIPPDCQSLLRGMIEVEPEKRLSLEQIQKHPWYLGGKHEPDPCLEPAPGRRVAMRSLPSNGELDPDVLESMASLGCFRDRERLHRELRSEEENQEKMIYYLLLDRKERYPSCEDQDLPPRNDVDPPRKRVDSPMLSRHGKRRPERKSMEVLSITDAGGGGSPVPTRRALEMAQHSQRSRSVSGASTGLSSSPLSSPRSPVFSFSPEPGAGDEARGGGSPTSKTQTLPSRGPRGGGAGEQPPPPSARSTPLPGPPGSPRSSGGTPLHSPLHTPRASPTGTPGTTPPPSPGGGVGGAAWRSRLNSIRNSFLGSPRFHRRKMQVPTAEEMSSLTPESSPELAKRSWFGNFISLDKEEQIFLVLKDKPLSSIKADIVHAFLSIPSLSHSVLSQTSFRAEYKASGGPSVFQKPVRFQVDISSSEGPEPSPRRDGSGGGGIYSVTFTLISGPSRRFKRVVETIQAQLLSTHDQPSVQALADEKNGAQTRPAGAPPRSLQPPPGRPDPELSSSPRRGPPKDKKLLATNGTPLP

[5] = molecular target: Proto-oncogene tyrosine-protein kinase ROS (Homo sapiens) (UniProt P08922); test: Inhibition of recombinant human GST-tagged full length ROS1 (1883 to 2347 residues) expressed in baculovirus expression system using Tyr 01 as substrate at 10 uM incubated for 60 mins by Z'-Lyte assay relative to control
[6] = system: Epidermal growth factor receptor (Homo sapiens), P00533 [L858R,T790M]; test: Inhibition of recombinant human GST-tagged EGFR T790M/L858R double mutant (668 to 1210 residues) expressed in baculovirus expression system using Tyr 4 as substrate at 10 uM incubated for 60 mins by Z'-Lyte assay relative to control
Chain of Epidermal growth factor receptor (Homo sapiens), P00533 [L858R,T790M] (P00533 whole entry T790M/L858R, looked up, the tested form may be a part): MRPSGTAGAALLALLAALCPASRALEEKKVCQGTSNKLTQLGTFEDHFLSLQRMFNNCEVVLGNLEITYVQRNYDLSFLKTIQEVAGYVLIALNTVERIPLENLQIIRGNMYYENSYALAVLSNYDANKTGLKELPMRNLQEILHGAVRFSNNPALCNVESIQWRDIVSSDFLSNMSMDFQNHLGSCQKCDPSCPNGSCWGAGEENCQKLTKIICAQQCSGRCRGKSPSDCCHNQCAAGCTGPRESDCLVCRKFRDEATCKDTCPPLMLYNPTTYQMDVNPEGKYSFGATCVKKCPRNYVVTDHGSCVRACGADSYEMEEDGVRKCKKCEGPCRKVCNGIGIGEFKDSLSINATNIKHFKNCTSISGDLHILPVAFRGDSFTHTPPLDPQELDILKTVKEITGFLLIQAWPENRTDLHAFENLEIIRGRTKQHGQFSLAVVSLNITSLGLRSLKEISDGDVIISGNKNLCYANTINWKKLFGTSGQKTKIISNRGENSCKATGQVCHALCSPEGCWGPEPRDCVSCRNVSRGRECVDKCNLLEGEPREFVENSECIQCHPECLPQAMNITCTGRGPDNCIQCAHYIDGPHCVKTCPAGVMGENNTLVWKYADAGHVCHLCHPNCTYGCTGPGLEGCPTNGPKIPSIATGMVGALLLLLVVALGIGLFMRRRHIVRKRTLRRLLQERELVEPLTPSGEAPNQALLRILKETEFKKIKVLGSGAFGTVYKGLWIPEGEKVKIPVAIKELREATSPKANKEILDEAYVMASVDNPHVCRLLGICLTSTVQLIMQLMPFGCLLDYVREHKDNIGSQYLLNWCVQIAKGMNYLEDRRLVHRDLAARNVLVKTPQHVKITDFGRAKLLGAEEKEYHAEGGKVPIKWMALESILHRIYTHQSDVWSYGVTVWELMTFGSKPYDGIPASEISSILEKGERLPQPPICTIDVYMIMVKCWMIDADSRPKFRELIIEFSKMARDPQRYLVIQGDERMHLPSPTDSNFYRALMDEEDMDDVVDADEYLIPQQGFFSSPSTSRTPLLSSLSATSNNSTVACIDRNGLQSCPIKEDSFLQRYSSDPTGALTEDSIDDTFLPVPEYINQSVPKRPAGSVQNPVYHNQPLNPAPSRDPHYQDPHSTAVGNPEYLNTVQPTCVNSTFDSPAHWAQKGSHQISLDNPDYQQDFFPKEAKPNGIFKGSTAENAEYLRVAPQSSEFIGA

[7] = molecular target: Dual specificity tyrosine-phosphorylation-regulated kinase 4 (Homo sapiens) (UniProt Q9NR20); test: Inhibition of recombinant human GST-tagged full length DYRK4 expressed in baculovirus expression system using Ser/Thr 9 as substrate at 10 uM incubated for 60 mins by Z'-Lyte assay relative to control
[8] = molecular target: Serine/threonine-protein kinase 17A (Homo sapiens) (UniProt Q9UEE5); test: Inhibition of tracer 236 binding to recombinant human GST-tagged full length DRAK1 expressed in baculovirus expression system at 10 uM incubated for 60 mins by Lanthascreen assay relative to control
[9] = molecular target: Mitogen-activated protein kinase kinase kinase 2 (Homo sapiens) (UniProt Q9Y2U5); test: Inhibition of tracer 236 binding to recombinant human GST-tagged full length MEKK2 expressed in baculovirus expression system at 10 uM incubated for 60 mins by Lanthascreen assay relative to control
[10] = molecular target: Serine/threonine-protein kinase WNK2 (Homo sapiens) (UniProt Q9Y3S1); test: Inhibition of tracer 178 binding to recombinant human GST-tagged WNK2 (166 to 489 residues) expressed in baculovirus expression system at 10 uM incubated for 60 mins by Lanthascreen assay relative to control
[11] = molecular target: Receptor-type tyrosine-protein kinase FLT3 (Homo sapiens) (UniProt P36888); test: Inhibition of recombinant human His-tagged FLT3 (564 to 958 residues) expressed in baculovirus expression system using Tyr 02 as substrate at 10 uM incubated for 60 mins by Z'-Lyte assay relative to control
[12] = molecular target: Ephrin type-B receptor 1 (Homo sapiens) (UniProt P54762); test: Inhibition of recombinant human GST-tagged EPHB1 (613 to 881 residues) expressed in baculovirus expression system using Tyr 02 as substrate at 10 uM incubated for 60 mins by Z'-Lyte assay relative to control
[13] = molecular target: G protein-coupled receptor kinase 5 (Homo sapiens) (UniProt P34947); test: Inhibition of recombinant human GST-tagged full length GRK5 expressed in baculovirus expression system using Ser/Thr 16 as substrate at 10 uM incubated for 60 mins by Z'-Lyte assay relative to control
[14] = molecular target: BDNF/NT-3 growth factors receptor (Homo sapiens) (UniProt Q16620); test: Inhibition of recombinant human His-tagged TRKB (526 to 838 residues) expressed in baculovirus expression system using Tyr 01 as substrate at 10 uM incubated for 60 mins by Z'-Lyte assay relative to control
[15] = molecular target: Ephrin type-B receptor 3 (Homo sapiens) (UniProt P54753); test: Inhibition of recombinant human GST-tagged EPHB3 (623 to 907 residues) expressed in baculovirus expression system using Tyr 02 as substrate at 10 uM incubated for 60 mins by Z'-Lyte assay relative to control
Chain of Ephrin type-B receptor 3 (Homo sapiens) (P54753 whole entry, the tested form may be a part): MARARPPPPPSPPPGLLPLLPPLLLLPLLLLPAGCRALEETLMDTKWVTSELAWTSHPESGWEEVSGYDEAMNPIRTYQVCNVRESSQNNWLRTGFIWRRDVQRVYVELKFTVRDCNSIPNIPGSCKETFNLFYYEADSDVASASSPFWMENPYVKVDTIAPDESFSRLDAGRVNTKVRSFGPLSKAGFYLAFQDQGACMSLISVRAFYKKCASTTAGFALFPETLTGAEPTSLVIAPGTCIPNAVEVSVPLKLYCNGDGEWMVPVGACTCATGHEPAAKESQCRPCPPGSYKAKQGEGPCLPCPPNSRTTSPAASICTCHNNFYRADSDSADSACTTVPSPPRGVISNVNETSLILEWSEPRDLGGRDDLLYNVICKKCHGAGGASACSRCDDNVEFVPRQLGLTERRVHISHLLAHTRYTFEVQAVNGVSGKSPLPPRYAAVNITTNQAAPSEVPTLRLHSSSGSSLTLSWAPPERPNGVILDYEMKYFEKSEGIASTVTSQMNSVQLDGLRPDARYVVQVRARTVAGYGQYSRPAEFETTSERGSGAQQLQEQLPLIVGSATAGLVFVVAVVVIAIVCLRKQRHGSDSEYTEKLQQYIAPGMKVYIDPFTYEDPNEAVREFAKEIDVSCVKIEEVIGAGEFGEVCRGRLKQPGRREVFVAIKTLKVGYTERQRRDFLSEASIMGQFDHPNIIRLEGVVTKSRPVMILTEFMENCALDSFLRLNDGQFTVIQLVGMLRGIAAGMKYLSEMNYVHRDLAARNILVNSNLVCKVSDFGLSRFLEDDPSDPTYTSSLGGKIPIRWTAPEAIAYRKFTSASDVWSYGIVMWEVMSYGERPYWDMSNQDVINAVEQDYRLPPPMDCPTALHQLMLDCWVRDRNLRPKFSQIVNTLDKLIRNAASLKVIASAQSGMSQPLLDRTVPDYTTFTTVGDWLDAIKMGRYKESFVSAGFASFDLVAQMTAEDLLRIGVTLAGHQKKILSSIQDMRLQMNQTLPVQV

[16] = molecular target: Receptor tyrosine-protein kinase erbB-4 (Homo sapiens) (UniProt Q15303); test: Inhibition of recombinant human N-terminal GST-tagged ERBB4 (708 to 993 residues) expressed in baculovirus expression system using Tyr 01 as substrate at 10 uM incubated for 60 mins by Z'-Lyte assay relative to control
[17] = molecular target: Myosin light chain kinase (Homo sapiens) (UniProt Q32MK0); test: Inhibition of MYLK3 (unknown origin) by selectscreen kinase assay; conditions: dose 10.0 µM, time 60.0 min
Chain of Myosin light chain kinase (Homo sapiens) (Q32MK0 whole entry, the tested form may be a part): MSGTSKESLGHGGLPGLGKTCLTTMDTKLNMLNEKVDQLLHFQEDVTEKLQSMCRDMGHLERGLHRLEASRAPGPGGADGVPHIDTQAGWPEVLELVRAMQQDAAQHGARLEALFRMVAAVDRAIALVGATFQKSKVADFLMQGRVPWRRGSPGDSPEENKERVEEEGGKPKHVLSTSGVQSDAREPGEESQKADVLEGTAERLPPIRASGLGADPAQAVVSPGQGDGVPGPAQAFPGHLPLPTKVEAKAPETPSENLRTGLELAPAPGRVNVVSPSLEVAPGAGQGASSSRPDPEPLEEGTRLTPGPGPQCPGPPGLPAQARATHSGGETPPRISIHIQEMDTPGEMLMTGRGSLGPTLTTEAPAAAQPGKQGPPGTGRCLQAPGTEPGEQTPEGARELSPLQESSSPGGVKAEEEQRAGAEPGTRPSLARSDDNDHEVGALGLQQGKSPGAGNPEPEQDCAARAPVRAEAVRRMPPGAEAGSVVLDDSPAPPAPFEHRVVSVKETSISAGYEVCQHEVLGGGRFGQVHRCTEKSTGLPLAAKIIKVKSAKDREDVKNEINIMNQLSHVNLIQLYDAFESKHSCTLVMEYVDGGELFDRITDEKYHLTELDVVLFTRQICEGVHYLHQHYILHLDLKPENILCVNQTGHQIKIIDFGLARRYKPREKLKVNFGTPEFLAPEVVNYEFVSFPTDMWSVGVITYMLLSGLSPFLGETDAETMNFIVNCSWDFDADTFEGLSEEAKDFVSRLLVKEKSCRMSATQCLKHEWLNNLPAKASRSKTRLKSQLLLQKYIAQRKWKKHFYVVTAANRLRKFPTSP

[18] = molecular target: Epithelial discoidin domain-containing receptor 1 (Homo sapiens) (UniProt Q08345); test: Inhibition of tracer 178 binding to recombinant human GST-tagged DDR1 (440 to 876 residues ) expressed in baculovirus expression system at 10 uM incubated for 60 mins by Lanthascreen assay relative to control
[19] = molecular target: Ribosomal protein S6 kinase alpha-5 (Homo sapiens) (UniProt O75582); test: Inhibition of recombinant human GST-tagged full length MSK1 expressed in baculovirus expression system using Ser/Thr 01 as substrate at 10 uM incubated for 60 mins by Z'-lyte assay relative to control
[20] = molecular target: MAP kinase-interacting serine/threonine-protein kinase 1 (Homo sapiens) (UniProt Q9BUB5); test: Inhibition of recombinant human GST-tagged full length MKNK1 expressed in insect expression system using Ser/Thr 07 as substrate at 10 uM incubated for 60 mins by Z'-lyte assay relative to control
[21] = molecular target: Tyrosine-protein kinase Mer (Homo sapiens) (UniProt Q12866); test: Inhibition of recombinant human GST-tagged MER (578 to 872 residues) expressed in baculovirus expression system using Tyr 02 as substrate at 10 uM incubated for 60 mins by Z'-lyte assay relative to control
[22] = molecular target: Phosphorylase b kinase gamma catalytic chain, liver/testis isoform (Homo sapiens) (UniProt P15735); test: Inhibition of recombinant human N-terminal GST-tagged full length PHKG2 expressed in baculovirus expression system using Ser/Thr 07 as substrate at 10 uM incubated for 60 mins by Z'-lyte assay relative to control
[23] = molecular target: Mitogen-activated protein kinase kinase kinase 9 (Homo sapiens) (UniProt P80192); test: Inhibition of recombinant human GST-tagged MLK1 (1 to 500 residues) expressed in baculovirus expression system using Ser/Thr 07 as substrate at 10 uM incubated for 60 mins by Z'-lyte assay relative to control
Chain of Mitogen-activated protein kinase kinase kinase 9 (Homo sapiens) (P80192 whole entry, looked up, the tested form may be a part): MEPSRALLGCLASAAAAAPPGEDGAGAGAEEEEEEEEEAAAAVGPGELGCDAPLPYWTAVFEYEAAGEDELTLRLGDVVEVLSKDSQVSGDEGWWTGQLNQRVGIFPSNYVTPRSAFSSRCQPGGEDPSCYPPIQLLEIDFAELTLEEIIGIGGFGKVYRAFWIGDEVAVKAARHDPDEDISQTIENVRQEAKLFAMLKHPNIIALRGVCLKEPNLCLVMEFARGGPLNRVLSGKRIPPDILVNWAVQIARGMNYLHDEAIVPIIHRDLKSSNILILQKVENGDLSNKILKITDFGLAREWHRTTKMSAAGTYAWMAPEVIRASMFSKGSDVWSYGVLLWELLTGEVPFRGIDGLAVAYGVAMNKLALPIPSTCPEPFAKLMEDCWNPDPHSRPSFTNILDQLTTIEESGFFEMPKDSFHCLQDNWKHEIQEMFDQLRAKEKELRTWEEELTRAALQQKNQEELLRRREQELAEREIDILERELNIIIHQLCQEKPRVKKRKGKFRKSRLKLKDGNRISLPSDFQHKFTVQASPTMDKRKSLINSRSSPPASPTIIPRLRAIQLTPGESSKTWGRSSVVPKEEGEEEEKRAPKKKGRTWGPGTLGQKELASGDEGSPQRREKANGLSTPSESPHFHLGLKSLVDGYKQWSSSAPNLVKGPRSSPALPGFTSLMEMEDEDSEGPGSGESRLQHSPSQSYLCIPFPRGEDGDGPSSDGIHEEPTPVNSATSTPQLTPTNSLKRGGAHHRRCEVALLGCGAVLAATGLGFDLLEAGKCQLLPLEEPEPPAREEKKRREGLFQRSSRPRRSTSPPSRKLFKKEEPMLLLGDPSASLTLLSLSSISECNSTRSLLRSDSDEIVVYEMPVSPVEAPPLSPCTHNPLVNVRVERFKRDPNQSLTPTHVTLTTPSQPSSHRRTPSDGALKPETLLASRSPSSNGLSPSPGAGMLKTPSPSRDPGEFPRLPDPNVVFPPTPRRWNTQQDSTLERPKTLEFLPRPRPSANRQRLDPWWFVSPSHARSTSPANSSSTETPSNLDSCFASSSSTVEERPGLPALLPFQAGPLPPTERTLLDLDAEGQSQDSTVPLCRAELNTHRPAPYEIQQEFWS

`CN1C(=O)[C@@H](NC(=O)c2n[nH]c3ncc(C(F)(F)C(F)(F)F)cc23)COc2ccccc21` gave an inhibition [1] of -4.5%, an inhibition [2] of 15.5% and an inhibition [3] of 8.5%. The inhibition [4] was 6%, the inhibition [5] was -4% and the inhibition [6] was 7%. For the same compound, the inhibition [7] was 4.5%, the inhibition [8] was 15.5% and the inhibition [9] was -1%. The inhibition [10] was 5%, the inhibition [11] was 8.5% and the inhibition [12] was 2%. The inhibition [13] was 7.5%, the inhibition [14] was 0.5% and the inhibition [15] was 1%. For the same compound, the inhibition [16] was 9%, the inhibition [17] was 10.5% and the inhibition [18] was 7%. It also gave an inhibition [19] of -1%, an inhibition [20] of 7% and an inhibition [21] of -4%. The inhibition [22] was 3.5% and the inhibition [23] was 9%.
